Data reported in Sander's compilation of Henry's law constants (doi:10.1063/1.555654).

Assay: Henry solubility constant Hcp at 298.15 K (mol/(m3 Pa))
Settings: reference: Mackay and Shiu (1981)

| Structure (SMILES) | Henry solubility constant Hcp |
| --- | --- |
| c1ccc2c(c1)Cc1ccccc1-2 [2,3-benzindene] | 0.099 |
| Cc1cccc2ccccc12 [1-methylnaphthalene] | 0.038 |
| c1ccc2c(c1)ccc1ccccc12 [phenanthrene] | 0.27 |
| c1ccc(-c2ccccc2)cc1 [biphenyl] | 0.033 |
| Clc1cc(Cl)c(Cl)c(Cl)c1 [1,2,3,5-tetrachlorobenzene] | 0.0063 |
| Clc1ccccc1 [chlorobenzene] | 0.0032 |
| Brc1ccccc1 [bromobenzene] | 0.004 |
| Clc1cccc2ccccc12 [1-chloronaphthalene] | 0.0028 |
| c1cc2c3c(cccc3c1)CC2 [acenaphthene] | 0.0064 |
| Clc1ccc2ccccc2c1 [2-chloronaphthalene] | 0.031 |
| c1ccc2cc3ccccc3cc2c1 [anthracene] | 0.014 |
| Clc1ccc(Cl)cc1 [1,4-dichlorobenzene] | 0.0042 |
| Clc1cccc(Cl)c1Cl [1,2,3-trichlorobenzene] | 0.0079 |
